According to US10975069B2, “Sigma-2 receptor ligand drug conjugates as antitumor compounds, methods of synthesis and uses thereof” (priority 2014, dated 2021):
Read-outs that look alike come from different tables or passages of the source.

Experiments:
[1] = system: BxPC-3; assay: Viability assay (CELLTITER-GLO), 24 hours treatment; assay type: cell-based, human
Experimental: (§1) In these experiments, viability assays after 24 hours treatment of human and murine pancreatic cancer cell lines and synovial sarcoma cell lines with SW V-49s or its parent compounds SV119 and Erastin, both singly and in combination, were performed. […] In comparison.
(§2) Cytotoxicity of the drugs was evaluated by CELLTITER-GLO®. Luminescent cell viability assay (Promega, Madison, Wis.). Pancreatic cell lines were plated at a density of 2×10^4/well in white 96 well, clear bottom plates for 24 hours prior to treatment. Drugs were dissolved in DMSO and serially diluted in culture medium to achieve the final concentration of DMSO less than 1%. Cells were then treated for 24 hours and 100 μl of the CELLTITER-GLO® reagent was added to each well. The contents of the plates were mixed using an orbital shaker and subsequently incubated for 10 minutes at room temperature. Luminescence signal was measured using a multi-mode microplate reader (BioTek instruments. Winooski, Vt.). Different drug concentrations were assayed in triplicate. To evaluate the efficacy of the drugs, IC50 of the compounds was calculated on a panel of human and mouse derived pancreatic cancer cell lines in vitro. Cells were treated for 24 hours with SW V-49s, SV119, Erastin, and an equimolar mixture of SV119 and Erastin, then CELLTITER-GLO® viability assay was performed.

[2] = system: MIA PaCa-2; assay: as above; assay type: cell-based, human
Experimental: as §1, §2

[3] = system: PANC-1; assay: as above; assay type: cell-based, human
Experimental: as §1, §2

[4] = system: SYO-1; assay: Viability assay, 24 hours treatment, synovial sarcoma cells; assay type: cell-based
Experimental: as §1
Synovial sarcoma cell lines (FIG. 4F, SYO-1, ME1 deficient) are so sensitive to SW V-49s that it was difficult to measure the minimal drug concentration required to kill 50% of the cancer cells, but the measured IC50 was approx. 1.0 μM.
AsPC-1 and SYO-1 cells were plated in 96 well plate overnight then treated with similar concentrations of Erastin for 24 hours. Viability assay was performed after 24 hours. […] (p<0.0001), (FIG. 10).

[5] = system: caspase 8; assay: CASPASE-GLO caspase 8 assay in AsPC-1 cells; assay type: cell-based, human; conditions: 4 μM, 24 hours, FIG. 12C
Experimental: In these experiments, caspase-3/7.8 and 9 activities were measured In AsPC-1 cells using the corresponding CASPASE-GLO® Assay according to the manufacturer's instructions (Promega, Madison. Wis.). This assay is based on a caspase-specific substrate, which is cleaved to release aminoluciferin, a substrate of luciferase that results in caspase-specific luminescence signals. Cells were seeded at a density of 2×10^4 in white 96-well, clear bottom plates for 24 hours before treatment with 4 μM of compounds. The contents were then mixed using a plate shaker for 30 seconds, thereafter incubated at room temperature for 90 minutes. Luminescence signal was measured using a multi-mode microplate reader (BioTek). Assay was performed in triplicates, and the caspase activity of DMSO was considered as a base line.
The present inventors have shown that SV119 induces caspase-3 dependent apoptosis (Kashiwagi, H., el al. Mol Cancer 2007; 6:48). In these experiments, AsPC-1 cells were treated with 4 μM of SW V-49s. SV119, Erastin, and equimolar mixture of SV119 and Erastin for 24 hours. Using CASPASE-GLO® Assays, Caspase-3 level was measured to assess the activity of SW 119 domain of the SW V-49s compound and Caspase-8 and 9 levels were measured to identify which apoptotic pathway was involved.

[6] = system: AsPC-1 cells; assay: CELLTITER-GLO viability after pre-treatment with NAC or ZVAD; assay type: cell-based; conditions: Homo sapiens
Experimental: To assess the roles of these two mechanisms on the induction of cell death, the effects of pan-caspase inhibitor and antioxidant on the efficacy of SW V-49s were tested. In these experiments, AsPC-1 cells were pre-treated with 10 mM of the antioxidant N acetyl cysteine (NAC), 20 μM of pan-caspase inhibitor ZVAD, and DMSO as a control for 1 hour. Then, the 3 groups were treated with 10 μM of SW V-49s for 5 hours, after which a CELLTITER-GLO® viability assay was performed.

[7] = 24 hours treatment, SYO-1, ME1 deficient, FIG. 4F, read-out: IC50

Structure (SMILES)	IC50 ([1]; Homo sapiens, BXPC-3, 24 h, read-out: IC50 ± SEM, BxPC-3) [µM]	IC50 ([2]; Homo sapiens, MIA PaCa-2, 24 h, read-out: IC50 ± SEM, MiaPaCa-2) [µM]	IC50 ([3]; Homo sapiens, PANC-1, 24 h, read-out: IC50 ± SEM, PANC-1) [µM]	death of cells ([4]; 40 μM, 24 hours, SYO-1 cells, FIG. 10) [%]	IC50 ([4]; 24 h) [µM]	IC50 ([1]; 24 hours, mean ± SEM, n ≥ 3, read-out: IC50 ± SEM, BxPC-3) [µM]	IC50 ([2]; 24 hours, mean ± SEM, n ≥ 3, read-out: IC50 ± SEM, MiaPaCa-2) [µM]	IC50 ([3]; 24 hours, mean ± SEM, n ≥ 3, read-out: IC50 ± SEM, PANC-1) [µM]	IC50 [4, 7] [µM]	IC50 ([1]; Homo sapiens, BXPC-3, 24 h, read-out: IC50 concentration) [µM]	IC50 ([1]; Homo sapiens, BXPC-3, 24 hours, mean ± SEM, n ≥ 3, read-out: IC50 ± SEM, BxPC-3) [µM]	IC50 ([2]; Homo sapiens, MIA PaCa-2, 24 h, read-out: IC50 concentration) [µM]	IC50 ([2]; Homo sapiens, MIA PaCa-2, 24 hours, mean ± SEM, n ≥ 3, read-out: IC50 ± SEM, MiaPaCa-2) [µM]	IC50 ([3]; Homo sapiens, PANC-1, 24 h, read-out: IC50 concentration) [µM]	IC50 ([3]; Homo sapiens, PANC-1, 24 hours, mean ± SEM, n ≥ 3, read-out: IC50 ± SEM, PANC-1) [µM]	increase in caspase 8 [5]	viability at 10 µM ([6]; ASPC1, 10 μM SW V-49s 5 hours after 1 hour pre-treatment with 20 μM ZVAD) [%]	viability at 10 µM ([6]; ASPC1, 10 μM SW V-49s 5 hours after 1 hour pre-treatment with 10 mM NAC) [%]	viability at 10 µM ([6]; ASPC1, 10 μM SW V-49s alone, 5 hours (DMSO pre-treatment)) [%]
CCOc1ccccc1-n1c(C(C)N2CCN(C(=O)COc3ccc(Cl)cc3)CC2)nc2ccccc2c1=O (centres unmarked) [Erastin]	> 150	> 150	> 150	84	> 16	–	–	–	–	–	–	–	–	–	–	–	–	–	–
COc1ccc(C)cc1NC(=O)OC1C[C@H]2CCC[C@@H](C1)N2CCCCCCN (some centres unmarked) [SV119, reference compound]	–	–	–	–	–	54.2 ± 2.6	94.5 ± 1.9	111 ± 5.3	6.2	–	–	–	–	–	–	–	–	–	–
CCOc1ccccc1-n1c(CN2CCN(C(=O)COc3ccc(CNCCCCCCN4C5CCCC4CC(OC(=O)Nc4cc(C)ccc4OC)C5)cc3)CC2)nc2ccccc2c1=O.O=C(O)C(=O)O (centres unmarked) [SW V-49s]	–	–	–	–	–	–	–	–	~1	2.3	2.5 ± 0.1	2.3	3 ± 0.3	4.3	4.1 ± 0.2	no significant increase	91	63	39
